Measured values: US20050209278A1, “Piperidinyl- and piperazinyl-sulfonylmethyl hydroxamic acids and their use as protease inhibitors” (priority 2002, published 2005)

Key:
MMP-14 = molecular target: T1, MMP-14 (Homo sapiens, UniProt P50281); experiment: In vitro MMP inhibition, Ki determination (fluorogenic substrate II); format: biochemical; details: value not in parenthesis; read-out: MMP-14 Ki
T1 construct: The catalytic domain enzyme was expressed in E. coli inclusion bodies, solubilized in urea; made in house
Description: Several hydroxamic acids and salts thereof were analyzed in in vitro assays to determine their ability to inhibit the MMP cleavage of peptide substrates. […] and IC50 constants were calculated from the assayed hydroxamic acid-MMP interactions.
Human recombinant MMP-1, MMP-2, MMP-9, MMP-13, and MMP-14 were used in this assay. All enzymes were prepared in Assignee's laboratories following usual laboratory procedures. Protocols for the preparation and use of these enzymes are available in the scientific literature. See, e.g., Enzyme Nomenclature (Academic Press, San Diego, Calif., 1992) (and the citations therein). See also, Freije et al., “Molecular cloning and expression of collagenase-3, a novel human matrix metalloproteinase produced by breast carcinomas,” J Biol. Chem., 269(24), 16766-16773 (1994).
The MMP-14 full length cDNA was provided by Dr. Gregory Goldberg of Washington University (St. Louis, Mo.). The catalytic domain enzyme was expressed in E. coli inclusion bodies, solubilized in urea, purified on a preparative […] reverse phase HPLC column, and then refolded in the presence of zinc acetate and purified for use.
All MMPs were activated using 4-aminophenylmercuric acetate (“APMA”, Sigma Chemical, St. Louis, Mo.) or trypsin. MMP-9 also was activated using human recombinant MMP-3 (purified in Assignee's laboratory following standard cloning and purification techniques).
Two fluorogenic, methoxycoumarin-containing polypeptide substrates were used in the MMP inhibition assays: [drawing 427] Here, “Dpa” is 3-(2,4-dinitrophenyl)-L-2,3-diaminopropionyl group, and “MCA” is 7-methoxycoumarin-4-yl acetyl. Substrate (I) was purchased from Baychem (Redwood City, Calif.), and substrate II was prepared Assignee's laboratory. Substrate I was used in the IC50 determination assays, while substrate II was used in the Ki determination assays. In the absence of MMP inhibitory activity, either substrate is cleaved at the Gly-Leu peptide bond. This cleavage separates the highly fluorogenic peptide from the 2,4-dinitrophenyl quencher, thus resulting in increase of fluorescent intensity.
The stock solutions of the assayed hydroxamic acids (or salts thereof) were prepared in 1% dimethyl sulfoxide (DMSO). These stock solutions were diluted in Buffer A (100 mM Tris-HCl, 100 mM NaCl, 10 mM CaCl2, 0.05% polyoxyethylene 23 lauryl ether, pH 7.5) to obtain solutions with different hydroxamic acid concentrations, i.e., assay solutions with different concentrations of the assayed MMP inhibitory compound. The experiment controls contained the same amount of Buffer A/DMSO as the assayed sample, but contained no hydroxamic acid (or salt thereof).
The assays from which the Ki determinations were made were performed as follows. The assayed hydroxamic acid samples were incubated in separate wells of untreated white polystyrene plates (Nunc Nalgene International, Rochester, N.Y.), and analyzed on a Tecan SpectraFlour Plus plate reader. The excitation wavelength was 330 nm, and the emission wavelength—420 nm. All samples (assayed hydroxamic acids and controls) were incubated in separate plate wells at room temperature for 1 hr in the presence of 4 μM of MMP substrate (II). In the absence of MMP inhibitory activity, substrate II was cleaved at the Gly-Leu bond resulting in an increase of relative fluorescence. Inhibition was observed as a reduced rate of this increase in relative fluorescence. The various hydroxamic acids were analyzed using a single low enzyme concentration with a single substrate concentration fixed at or below the Km. This protocol is a modification of method by Knight et al., FEBS Lett., 296(3), 263-266 (1992). Apparent inhibitory constants were determined by non-linear regression of reaction velocity as a function of inhibitor and enzyme concentration using Morrison's equation, as described by Kuzmic, Anal. Biochem. 286, 45-50 (2000).

MMP-2 = molecular target: T2, MMP-2 (Homo sapiens, UniProt P08253); experiment: as above; format: biochemical; details: value not in parenthesis; read-out: MMP-2 Ki
T2 construct: made in house; host or cells: MMP-2-transfected p2AHT2 cells
T2 sequence (P08253 110-660): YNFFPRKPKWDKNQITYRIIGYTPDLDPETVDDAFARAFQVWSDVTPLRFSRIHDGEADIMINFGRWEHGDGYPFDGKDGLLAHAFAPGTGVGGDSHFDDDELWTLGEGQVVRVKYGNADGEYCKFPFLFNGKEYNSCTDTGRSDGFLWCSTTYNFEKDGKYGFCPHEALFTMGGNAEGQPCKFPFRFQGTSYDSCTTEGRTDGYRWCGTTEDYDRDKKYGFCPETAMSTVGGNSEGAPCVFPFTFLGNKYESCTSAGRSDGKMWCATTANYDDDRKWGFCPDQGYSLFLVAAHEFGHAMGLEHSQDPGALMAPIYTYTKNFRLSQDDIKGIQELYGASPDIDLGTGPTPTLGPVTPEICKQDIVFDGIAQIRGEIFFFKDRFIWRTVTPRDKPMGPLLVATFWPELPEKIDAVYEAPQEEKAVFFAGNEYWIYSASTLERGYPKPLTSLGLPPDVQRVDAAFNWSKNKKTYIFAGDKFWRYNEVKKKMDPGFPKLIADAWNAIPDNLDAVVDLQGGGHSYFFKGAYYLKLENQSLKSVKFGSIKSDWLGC

Compound	Ki (MMP-14)	Ki (MMP-2)
O=C(NO)C1(S(=O)(=O)N2CCN(c3ncc(Br)cn3)CC2)CCOCC1 [Example 103]	227 nM	3.44 nM
O=C(NO)C1(S(=O)(=O)N2CCN(c3ncc(Br)cn3)CC2)CCOCC1 [Example 104]	305 nM	4.73 nM
O=C(NO)C1(S(=O)(=O)N2CCN(c3ncccn3)CC2)CCOCC1 [Example 106]	7510 nM	134 nM
O=C(NO)C1(S(=O)(=O)N2CCN(c3ncccn3)CC2)CCOCC1 [Example 107]	6000 nM	115 nM
COc1ccc(N2CCN(S(=O)(=O)C3(C(=O)NO)CCOCC3)CC2)nc1 [Example 108]	> 10000 nM	431 nM
COc1ccc(N2CCN(S(=O)(=O)C3(C(=O)NO)CCOCC3)CC2)nc1 [Example 109]	> 10000 nM	477 nM
CCCCCCCCCc1cnc(N2CCN(S(=O)(=O)C3(C(=O)NO)CCOCC3)CC2)nc1 [Example 110]	> 10000 nM	61.7 nM
CCCCCCCCCc1cnc(N2CCN(S(=O)(=O)C3(C(=O)NO)CCOCC3)CC2)nc1 [Example 111]	> 10000 nM	49.6 nM
O=C(NO)C1(S(=O)(=O)N2CCN(c3ccc(OCCCC(F)(F)F)cc3)CC2)CCN(c2cnccn2)CC1 [Example 112]	1170 nM	0.69 nM
CCCCOc1ccc(N2CCN(S(=O)(=O)C3(C(=O)NO)CCN(C(=O)OCCF)CC3)CC2)cc1 [Example 113]	2330 nM	0.4 nM
CCc1ccc(N2CCN(S(=O)(=O)C3(C(=O)NO)CCOCC3)CC2)nc1 [Example 114]	97 nM	0.367 nM
CCCCOc1ccc(N2CCN(S(=O)(=O)C3(C(=O)NO)CCN(C(=O)OCC(F)(F)F)CC3)CC2)cc1 [Example 115]	> 10000 nM	1.48 nM
CC(C)(C)N1CCC(C(=O)NO)(S(=O)(=O)N2CCN(c3ccc(OCCCC(F)(F)F)cc3F)CC2)CC1 [Example 116]	8030 nM	4.31 nM
O=C(NO)C1(S(=O)(=O)N2CCN(c3ccc(OCCCC(F)(F)F)cc3F)CC2)CCOCC1 [Example 117]	5690 nM	2.58 nM
CCCCOc1ccc(N2CCN(S(=O)(=O)C3(C(=O)NO)CCN(C(=O)NCCOC)CC3)CC2)cc1 [Example 118]	2600 nM	0.75 nM
COCCN1CCC(C(=O)NO)(S(=O)(=O)N2CCN(c3ccc(OCC(F)(F)F)cc3)CC2)CC1 [Example 119]	4380 nM	1.19 nM
CCCCOc1ccc(N2CCN(S(=O)(=O)C3(C(=O)NO)CCN(c4ccc(O)cc4)CC3)CC2)cc1 [Example 121]	> 10000 nM	2.15 nM
O=C(c1cccnc1)N1CCC(C(=O)NO)(S(=O)(=O)N2CCN(c3ccc(OCCCC(F)(F)F)cc3)CC2)CC1 [Example 122]	3090 nM	0.34 nM
CCCCOc1ccc(N2CCN(S(=O)(=O)C3(C(=O)NO)CCN(C(=S)N(C)C)CC3)CC2)cc1 [Example 123]	5650 nM	1.28 nM
CCCCOc1ccc(N2CCN(S(=O)(=O)C3(C(=O)NO)CCN(C(=O)N4CCOCC4)CC3)CC2)cc1 [Example 124]	> 10000 nM	0.193 nM
CCCCOc1ccc(N2CCN(S(=O)(=O)C3(C(=O)NO)CCN(c4ccc(C)cn4)CC3)CC2)cc1 [Example 125]	2760 nM	1.8 nM

Compound	Ki (MMP-14)	Ki (MMP-2)
CCCCOc1ccc(N2CCN(S(=O)(=O)C3(C(=O)NO)CCN4CCCC4C3)CC2)cc1F (stereo not drawn) [Example 126]	> 10000 nM	8.24 nM
CCCCOc1ccc(N2CCN(S(=O)(=O)C3(C(=O)NO)CCN(C(=O)c4cc5ccccc5o4)CC3)CC2)cc1 [Example 127]	> 10000 nM	6.02 nM
CC(C)CCOc1ccc(N2CCN(S(=O)(=O)C3(C(=O)NO)CCN(C4CC4)CC3)CC2)cc1 [Example 128]	5380 nM	0.785 nM
CCCCOc1ccc(N2CCN(S(=O)(=O)C3(C(=O)NO)CCN(c4ccc(OCCOC)nn4)CC3)CC2)cc1 [Example 129]	1300 nM	0.508 nM
CCCCOc1ccc(N2CCN(S(=O)(=O)C3(C(=O)NO)CCN(c4nccc(C(F)(F)F)n4)CC3)CC2)cc1 [Example 130]	> 10000 nM	5.23 nM
CCCCOc1ccc(N2CCN(S(=O)(=O)C3(C(=O)NO)CCN(c4ccc(C)nc4)CC3)CC2)cc1 [Example 131]	3660 nM	1.39 nM
O=C1c2ccccc2C(=O)N1CCCCc1ccc(N2CCN(S(=O)(=O)C3(C(=O)NO)CCOCC3)CC2)nc1 [Example 132]	158 nM	1.2 nM
CC(C)CCc1ccc(N2CCN(S(=O)(=O)C3(C(=O)NO)CCOCC3)CC2)nc1 [Example 133]	2120 nM	0.251 nM
CCCc1ccc(N2CCN(S(=O)(=O)C3(C(=O)NO)CCOCC3)CC2)nc1 [Example 136]	159 nM	0.142 nM
Cc1ccc(N2CCN(S(=O)(=O)C3(C(=O)NO)CCOCC3)CC2)nc1 [Example 138]	66.6 nM	0.469 nM
CCCCOc1ccc(N2CCN(S(=O)(=O)C3(C(=O)NO)CCN(c4cc(C)ccn4)CC3)CC2)cc1 [Example 139]	1260 nM	2.18 nM
CCCCOc1ccc(N2CCN(S(=O)(=O)C3(C(=O)NO)CCN(c4cnccn4)CC3)CC2)cc1 [Example 140]	945 nM	0.672 nM
CCCCOc1ccc(N2CCN(S(=O)(=O)C3(C(=O)NO)CCN(C(=O)OCCOC)CC3)CC2)cc1 [Example 141]	1140 nM	0.266 nM
CCCCOc1ccc(N2CCN(S(=O)(=O)C3(C(=O)NO)CCN(c4ccc(OC)nc4)CC3)CC2)cc1 [Example 142]	2630 nM	0.978 nM
CCCCOc1ccc(N2CCN(S(=O)(=O)C3(C(=O)NO)CCN(C(=O)c4cc5ccccc5s4)CC3)CC2)cc1 [Example 143]	> 10000 nM	8.97 nM
COCCN1CCC(C(=O)NO)(S(=O)(=O)N2CCN(c3ccc(OCC(F)(F)C(F)(F)F)cc3)CC2)CC1 [Example 144]	> 10000 nM	0.69 nM
CCCCOc1ccc(N2CCN(S(=O)(=O)C3(C(=O)NO)CCOCC3)CC2)cc1 [Example 145]	2350 nM	0.695 nM
CCCCc1ccc(N2CCN(S(=O)(=O)C3(C(=O)NO)CCN(c4ccc(C)cc4)CC3)CC2)cc1 [Example 146]	8660 nM	6.41 nM
CCCCCc1ccc(N2CCN(S(=O)(=O)C3(C(=O)NO)CCN(c4ccc(C)cc4)CC3)CC2)cc1 [Example 147]	> 10000 nM	20.5 nM
COCCN1CCC(C(=O)NO)(S(=O)(=O)N2CCN(c3ccc(OCCC(C)C)cc3)CC2)CC1 [Example 148]	6980 nM	1.19 nM
CCCCOc1ccc(N2CCN(S(=O)(=O)C3(C(=O)NO)CCN(c4ccccn4)CC3)CC2)cc1 [Example 149]	2660 nM	1.89 nM
